In article PMC12535076, “Neurotherapeutic effects of Vutiglabridin as a Paraoxonase-2 modulator in preclinical models of Parkinson’s disease” (Molecular Neurodegeneration, 2025):

Tests used:
MAO-B = molecular target: T1, MAO-B (Homo sapiens, UniProt P27338); experiment: HRP/Amplex red based MAO-B enzyme activity assay; type: biochemical; settings: read-out: IC50, MAO-B assay, HRP/AR method
T1 sequence (P27338 1-520): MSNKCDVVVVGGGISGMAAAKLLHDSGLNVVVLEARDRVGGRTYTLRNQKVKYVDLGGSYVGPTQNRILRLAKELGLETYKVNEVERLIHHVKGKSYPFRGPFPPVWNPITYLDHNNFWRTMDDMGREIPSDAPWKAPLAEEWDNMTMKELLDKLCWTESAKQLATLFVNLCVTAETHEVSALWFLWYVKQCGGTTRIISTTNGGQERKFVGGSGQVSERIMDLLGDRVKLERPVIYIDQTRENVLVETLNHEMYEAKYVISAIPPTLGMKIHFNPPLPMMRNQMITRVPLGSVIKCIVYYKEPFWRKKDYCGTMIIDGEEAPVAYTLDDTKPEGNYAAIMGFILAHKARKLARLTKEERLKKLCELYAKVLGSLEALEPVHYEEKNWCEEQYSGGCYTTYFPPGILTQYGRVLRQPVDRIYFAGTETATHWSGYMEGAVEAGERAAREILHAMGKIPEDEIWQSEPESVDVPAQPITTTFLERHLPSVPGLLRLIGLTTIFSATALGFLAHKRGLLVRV
Experimental: MAO-A or MAO-B enzyme solutions were prepared by diluting 10 µL of a 2.5 mg/mL MAO-A or MAO-B stock into 10 mL of 50 mM sodium phosphate buffer (pH 7.4). A substrate assay mixture was then prepared by combining benzylamine (for MAO-B) or tyramine (for MAO-A) from a 100 mM stock (200 µL in 10 mL phosphate buffer, final concentration 1 mM) with 100 µL of a 20 mM AR reagent stock (final concentration 0.1 mM) and 100 µL of a 200 U/mL HRP stock (final concentration 1 U/mL) in 10 mL phosphate buffer. […] Next, 50 µL of the substrate assay mixture was added, and the reaction was carried out at 37 °C for 60 min. The production of resorufin was quantified by fluorescence measurement (excitation at 540 nm and emission at 580 nm).

[1] = system: MPTP-injected C57BL/6 mice; experiment: MPTP-injected sub-acute PD mouse model (pole test, rotarod, TH immunohistochemistry); type: in vivo; settings: MPTP mice
Experimental: (§1) Animals were allowed at least 1 week of acclimatization before being subjected to the study and were housed in a regulated environment with a 12-h/12-h light/dark cycle. Food and water were provided ad libitum. The animal experiment was carried out in accordance with the National Institutes of Health Guide for the Care and Use of Laboratory Animals (NIH Publications No. 80–23; revised 1996). All procedures for handling mice were carried out in accordance with “Principles of Laboratory Animal Care” and the Animal Care and Use guidelines of Kyung Hee University, Seoul, Korea (KHSASP-20-163).
(§2) MPTP was dissolved in distilled water and injected intraperitoneally for five days from day 10 of the 21-day experiment period. Vuti or rasagiline was administered via oral gavage for 21 days. Vehicles for both Vuti and MPTP (distilled water) were administered to all mice. Mice were randomly divided for all studies. For the first set of studies shown in Fig. 3, each group consisted of 5 animals.
To determine forelimb and hindlimb motor coordination and balance, we performed the rotarod test as described previously. Also, the pole test was performed to measure bradykinesia. For the rotarod test, the animals were pre-trained on the rotating bar of a rotarod unit set (LE 8500, Letica, Spain) on days 18 and 19 before the test on day 20. During pre-training, three trials per day were performed (5 rpm rotation speed on the first day, 15 rpm rotation speed on the second day). Mice were kept on the rotating bar (7.3-cm diameter) for 5 min on each trial. On day 20, the time spent on the rotating bar at 20 rpm, which was defined as the latent period, was recorded. Performance was recorded as 300 s if the latent period exceeded 300 s. Mice had at least 5 min of rest between trials to reduce stress and fatigue. Each animal underwent three test trials, and the mean of the test results was subjected to statistical analysis. For the pole test, mice were held on the top of the pole (diameter 8 mm, height 55 cm, with a rough surface). The time to land down and place four fee on the floor was recorded as the time for locomotion activity (T-LA).
On day 21, mice were anesthetized with sodium pentobarbital (50 mg/kg intraperitoneally) and transcardially perfused with saline containing 0.5% sodium nitrate and heparin (10 U/mL) and then fixed with 4% PFA in 0.1 M phosphate-buffer (PB, pH 7.2). Dissected brains were post-fixed overnight in buffered 4% PFA at 4 °C and stored in a 30% sucrose solution until they sank. Brains were cryosectioned into 30 μm thick coronal sections in a Cryostat (Microsystems AG, Leica, Wetzlar, Germany) and stored until use at 4℃ in a cryoprotectant (25% ethylene glycol, 25% glycerol, 0.2 M PB, and water). All sections were collected in six separate series and processed for immunostaining.
Free-floating brain sections were processed with the avidin-biotin peroxidase complex (ABC) complex (Vector Laboratories, Burlingame, CA, USA) method. Briefly, brain sections were incubated with primary rabbit anti-TH antibodies (1:1000; Pel-Freez Biologicals, Rogers, AR, USA) overnight at 4 °C, with biotinylated anti-rabbit IgG (1:400) for 1 h at room temperature, and then with the ABC solution (1:1:200) for 1 h at room temperature. The immunoperoxidase signals of TH was detected by incubating sections with 0.5 mg/ml 3,3′-diaminobenzidine (Sigma, St. Louis, MO, USA) in 0.1 M PB containing 0.003% H2O2. Stained brain sections were mounted on gelatin-coated slides and imaged under a bright-field microscope (Olympus Optical, Tokyo, Japan). TH-positivity in the ST was measured by the optical density of TH-positive fibers at x40 magnification using ImageJ software (National Institutes of Health, Bethesda, MD, USA). TH-positive cells in the SNpc in brain tissue Sect. (5 sections/series) were counted at x100 magnification as previously described. […]

[2] = system: PON2-KD and wild-type C57BL/6 mice; experiment: MPTP model in wild-type and PON2-knockdown mice; type: in vivo, mouse
Experimental: as §1, §2
To determine forelimb and hindlimb motor coordination and balance, we performed the rotarod test as described previously. Also, the pole test was performed to measure bradykinesia. […] On day 20, the time spent on the rotating bar at 20 rpm, which was defined as the latent period, was recorded. Performance was recorded as 300 s if the latent period exceeded 300 s. […] The time to land down and place four fee on the floor was recorded as the time for locomotion activity (T-LA). […]
Free-floating brain sections were processed with the avidin-biotin peroxidase complex (ABC) complex (Vector Laboratories, Burlingame, CA, USA) method. […] The immunoperoxidase signals of TH was detected by incubating sections with 0.5 mg/ml 3,3′-diaminobenzidine (Sigma, St. Louis, MO, USA) in 0.1 M PB containing 0.003% H2O2. […] TH-positivity in the ST was measured by the optical density of TH-positive fibers at x40 magnification using ImageJ software (National Institutes of Health, Bethesda, MD, USA). […] (5 sections/series) were counted at x100 magnification as previously described. […]

[3] = Vuti 1, 50, 100 mg/kg/day or rasagiline 0.1 mg/kg/day orally for 21 days

CCOc1ccc(C2COc3c(ccc4c3CCC(C)(C)O4)C2)c(O)c1 (centres unmarked) [Vuti, Vutiglabridin]
IC50 (MAO-B): 425 µM | effect on T-LA in the pole test [1, 3]: significantly normalized | effect on latency to fall in the rotarod test [1, 3]: significantly normalized | number of TH-positive cells in the SNpc and fiber density in the ST ([1]; Vuti 1, 50, 100 mg/kg/day oral, p < 0.001 vs. control, levels comparable to rasagiline): dose-dependently increased | maximum efficacy dose ([1]; no difference in neuroprotection between 50 and 100 mg/kg): 50 mg/kg | neuroprotective effects in PON2-KD mice ([2]; PON2-KD mice, MPTP, Vuti 50 mg/kg oral for three weeks): absent | motor behavior, dopaminergic neuronal cell count and fiber density without MPTP ([2]; non-MPTP-injected wild-type mice, 50 mg/kg Vuti, vs vehicle-only): no changes | MPTP-induced damage to motor behaviors and dopaminergic neurons in wild-type mice ([2]; wild-type mice, MPTP, Vuti 50 mg/kg for three weeks): significantly attenuated
